Earlier results on eleven compounds are cited in US20100124560A1, “MULTI PORTION INTRA-ORAL DOSAGE FORM AND USE THEREOF” (McNEIL AB, priority 2008, published 2010).

The conditions of data set [1]: pKa value lying in interval 8-9.6.

Read-outs that look alike come from different tables or passages of the source.

Turning to `NC(=O)C[C@H](N)C(=O)O` [Aspargine], the “pKa value (in interval 8-9.6)” value in data set [1] is listed as 8.73.

Regarding `N[C@@H](CS(=O)(=O)O)C(=O)O` [Cysteic acid], the “Solubility in water, g/kg” value (in water) was “Very soluble”.

Consider `NC(=O)CC[C@H](N)C(=O)O` [Glutamine], for which the “Solubility in water” value (in water) is reported as 42 g/kg.

`N[C@@H](Cc1c[nH]cn1)C(=O)O` [Histidine]: the “Solubility in water” value (in water) is reported as 43.5 g/kg.

Take `CC[C@H](C)[C@H](N)C(=O)O` [Isoleucine]: for the setting “in water”, the “Solubility in water” value is 34.2 g/kg.

In the case of `CC(C)C[C@H](N)C(=O)O` [Leucine], the “Solubility in water” value (in water) was 22.0 g/kg.

On to `NCCCC[C@H](N)C(=O)O` [Lysine], for which the “Solubility in water, g/kg” value is recorded as “Very soluble^a)b)”.

Turning to `CSCC[C@H](N)C(=O)O` [Methionine], where the note is “in water”, the “Solubility in water” value is 56 g/kg.

For `N[C@@H](Cc1ccccc1)C(=O)O` [Phenylalanine], the “Solubility in water” value (in water) is 27.9 g/kg.

Take `N[C@@H](CO)C(=O)O` [Serine]: the “pKa value (in interval 8-9.6)” value in data set [1] was 9.05.

Turning to `CC(C)[C@H](N)C(=O)O` [Valine], the “Solubility in water” value (in water) is 88.5 g/kg.
